IC50 and GI50 data for 15 compounds are collected here from US20220402948A1, “EGFR INHIBITOR, COMPOSITION AND PREPARATION METHOD THEREFOR” (BETTA PHARMACEUTICALS CO., LTD., priority 2019, published 2022).

For one assay, the target named is EGFRΔ19del/T790M/C797S (Homo sapiens, UniProt P00533, T790M/C797S, form not given). The assay can be described thus: EGFR Δ19del/T790M/C797S kinase test (mobility variation analysis, Caliper EZ Reader). It counts as biochemical. The note with it: kinase enzymatic activity, Table 1. The essentials: (§1)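 Kinase pre-incubated with compound 10 minutes at room temperature, then ATP plus peptide substrate added; substrate conversion read by mobility shift after stop solution. Percent inhibition normalized to no-compound and no-enzyme controls; IC50 from variable-slope log(inhibitor) fit.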

The next assay has as its system A431. Description: A431 cell proliferation assay (CellTiter Glo, 72 hours). It counts as cell-based. The note with it: cell proliferation, A431, 72 hours, Table 2, read-out: A431 IC50. The essentials:
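A431 cells (2000/well) exposed 72 h to compound at 1000 nM down to 0.2 nM in 3-fold steps, 0.1% DMSO (0.5% for some series). Viability by CellTiter-Glo luminescence; IC50 by four-parameter nonlinear regression.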
(Cellular ATP, detected with luciferase, serves as a proxy for viable cell number.)

In assay [1] the target is Ba/F3 cells with EGFR Δ19del/T790M/C797S mutation gene stably overexpressed (Homo sapiens, UniProt P00533, T790M/C797S, cells depend on it, form not given). The assay can be described thus: Ba/F3-Δ19del/T790M/C797S cell proliferation assay (CellTiter Glo, 72 hours). Type of assay: cell-based. The note with it: Table 2, read-out: EGFR Δ19del/T790M/C797S IC50. The essentials:
(§2)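 Ba/F3 cells stably overexpressing wild-type EGFR or EGFR Δ19del/T790M/C797S were seeded at 2000 cells/well and incubated 72 h with compound. Viability was read by CellTiter-Glo luminescence, and IC50 came from a four-parameter logistic fit of signal against log concentration.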

The target of assay [2] is Ba/F3-EGFR wild-type cell line (Homo sapiens, UniProt P00533). The assay can be described thus: Ba/F3-EGFR wild-type cell proliferation assay (CellTiter Glo, 72 hours). It counts as cell-based. The settings on record: Table 2, read-out: EGFR WT IC50. The gist of the method: as §2
In a further assay the target is EGFR WT (Homo sapiens, UniProt P00533). Description: EGFR WT kinase test (mobility variation analysis, Caliper EZ Reader). It counts as biochemical. The note with it: kinase enzymatic activity, Table 1. The gist of the method: as §1
For the next assay, the target named is IGF1R (Homo sapiens, UniProt P08069). Description: IGF1R kinase test (mobility variation analysis, Caliper EZ Reader). It counts as biochemical. The note with it: kinase enzymatic activity, Table 1; read-out: EGFR IGF1R IC50. The gist of the method:
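Kinase preincubated 10 min at room temperature with compound (10-point 3-fold series, top 3000 nM), then ATP and substrate added and reacted at room temperature. Substrate conversion read by mobility-shift (Caliper EZ Reader); % inhibition vs no-enzyme and no-compound controls fitted to variable-slope curve for IC50.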

Like-named read-outs stand apart in the source and are kept apart here.

Sequence of IGF1R (P08069 31-1367, species assumed): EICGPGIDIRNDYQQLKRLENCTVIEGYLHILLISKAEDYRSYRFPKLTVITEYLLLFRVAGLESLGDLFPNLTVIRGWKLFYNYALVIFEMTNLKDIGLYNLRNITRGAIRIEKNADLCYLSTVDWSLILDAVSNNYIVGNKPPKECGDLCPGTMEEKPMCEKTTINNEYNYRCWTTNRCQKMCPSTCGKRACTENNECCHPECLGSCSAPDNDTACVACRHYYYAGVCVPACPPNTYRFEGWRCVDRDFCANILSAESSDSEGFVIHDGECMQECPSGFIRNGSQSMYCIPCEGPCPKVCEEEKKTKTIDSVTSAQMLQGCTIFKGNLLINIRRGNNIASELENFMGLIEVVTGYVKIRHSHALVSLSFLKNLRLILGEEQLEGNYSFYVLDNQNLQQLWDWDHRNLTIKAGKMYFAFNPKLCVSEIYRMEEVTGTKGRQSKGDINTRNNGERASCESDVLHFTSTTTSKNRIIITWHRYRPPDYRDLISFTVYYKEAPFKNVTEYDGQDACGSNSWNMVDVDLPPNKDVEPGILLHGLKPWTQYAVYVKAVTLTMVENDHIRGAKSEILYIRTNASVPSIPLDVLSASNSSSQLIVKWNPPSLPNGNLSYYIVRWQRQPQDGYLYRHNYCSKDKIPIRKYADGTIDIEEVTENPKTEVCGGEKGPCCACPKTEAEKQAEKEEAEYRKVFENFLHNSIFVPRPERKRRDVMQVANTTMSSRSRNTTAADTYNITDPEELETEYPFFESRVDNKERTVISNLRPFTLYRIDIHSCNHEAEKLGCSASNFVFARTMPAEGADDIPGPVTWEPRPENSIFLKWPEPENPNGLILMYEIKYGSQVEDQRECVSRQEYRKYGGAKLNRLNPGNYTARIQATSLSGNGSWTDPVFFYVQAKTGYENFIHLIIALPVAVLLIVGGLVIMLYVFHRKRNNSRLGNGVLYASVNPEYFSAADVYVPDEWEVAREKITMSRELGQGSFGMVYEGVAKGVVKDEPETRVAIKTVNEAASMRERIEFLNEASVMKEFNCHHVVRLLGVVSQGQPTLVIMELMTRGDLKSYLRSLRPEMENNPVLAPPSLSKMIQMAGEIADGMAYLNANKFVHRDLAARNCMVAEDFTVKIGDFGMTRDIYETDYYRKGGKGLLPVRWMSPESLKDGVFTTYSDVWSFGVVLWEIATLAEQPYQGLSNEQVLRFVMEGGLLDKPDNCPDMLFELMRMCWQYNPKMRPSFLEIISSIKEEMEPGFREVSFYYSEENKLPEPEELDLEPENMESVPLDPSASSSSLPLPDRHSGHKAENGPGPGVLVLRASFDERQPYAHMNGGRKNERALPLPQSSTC
Sequence of EGFRΔ19del/T790M/C797S (P00533 with tags, fused parts or gaps DEL746-750/T790M/C797S, form open): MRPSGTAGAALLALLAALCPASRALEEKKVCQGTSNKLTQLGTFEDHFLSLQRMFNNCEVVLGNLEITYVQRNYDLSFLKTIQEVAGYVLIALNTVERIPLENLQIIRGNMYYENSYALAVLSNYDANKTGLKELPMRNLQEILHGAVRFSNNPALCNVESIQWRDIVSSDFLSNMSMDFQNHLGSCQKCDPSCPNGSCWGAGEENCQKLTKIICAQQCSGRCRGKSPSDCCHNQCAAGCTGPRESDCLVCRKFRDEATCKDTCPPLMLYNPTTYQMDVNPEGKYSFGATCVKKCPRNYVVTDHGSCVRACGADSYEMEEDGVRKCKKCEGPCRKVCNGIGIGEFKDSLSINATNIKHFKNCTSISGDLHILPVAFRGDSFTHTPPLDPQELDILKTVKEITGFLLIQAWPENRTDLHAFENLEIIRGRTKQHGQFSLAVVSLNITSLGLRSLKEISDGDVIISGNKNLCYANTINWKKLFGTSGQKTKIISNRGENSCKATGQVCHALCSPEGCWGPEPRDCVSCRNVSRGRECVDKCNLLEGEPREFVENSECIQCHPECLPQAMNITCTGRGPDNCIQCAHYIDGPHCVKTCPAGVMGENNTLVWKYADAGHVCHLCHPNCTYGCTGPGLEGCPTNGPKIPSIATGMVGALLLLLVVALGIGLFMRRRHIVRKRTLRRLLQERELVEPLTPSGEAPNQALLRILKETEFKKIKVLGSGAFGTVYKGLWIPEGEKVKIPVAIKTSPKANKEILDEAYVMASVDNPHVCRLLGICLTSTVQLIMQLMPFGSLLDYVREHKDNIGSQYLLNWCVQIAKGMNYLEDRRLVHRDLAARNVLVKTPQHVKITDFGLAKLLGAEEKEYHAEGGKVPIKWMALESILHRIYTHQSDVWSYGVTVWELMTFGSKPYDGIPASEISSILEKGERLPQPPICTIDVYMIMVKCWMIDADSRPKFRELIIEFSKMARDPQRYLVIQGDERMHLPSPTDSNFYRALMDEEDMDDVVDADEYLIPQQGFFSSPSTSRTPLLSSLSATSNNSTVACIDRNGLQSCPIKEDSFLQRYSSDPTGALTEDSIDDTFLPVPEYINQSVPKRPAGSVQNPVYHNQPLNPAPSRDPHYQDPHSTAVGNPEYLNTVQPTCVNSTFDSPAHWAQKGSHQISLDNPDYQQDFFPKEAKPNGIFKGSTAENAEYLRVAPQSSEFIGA
Sequence of Ba/F3 cells with EGFR Δ19del/T790M/C797S mutation gene stably overexpressed (P00533 with tags, fused parts or gaps DEL746-750/T790M/C797S, form open): as above
Sequence of EGFR WT (P00533 25-1210): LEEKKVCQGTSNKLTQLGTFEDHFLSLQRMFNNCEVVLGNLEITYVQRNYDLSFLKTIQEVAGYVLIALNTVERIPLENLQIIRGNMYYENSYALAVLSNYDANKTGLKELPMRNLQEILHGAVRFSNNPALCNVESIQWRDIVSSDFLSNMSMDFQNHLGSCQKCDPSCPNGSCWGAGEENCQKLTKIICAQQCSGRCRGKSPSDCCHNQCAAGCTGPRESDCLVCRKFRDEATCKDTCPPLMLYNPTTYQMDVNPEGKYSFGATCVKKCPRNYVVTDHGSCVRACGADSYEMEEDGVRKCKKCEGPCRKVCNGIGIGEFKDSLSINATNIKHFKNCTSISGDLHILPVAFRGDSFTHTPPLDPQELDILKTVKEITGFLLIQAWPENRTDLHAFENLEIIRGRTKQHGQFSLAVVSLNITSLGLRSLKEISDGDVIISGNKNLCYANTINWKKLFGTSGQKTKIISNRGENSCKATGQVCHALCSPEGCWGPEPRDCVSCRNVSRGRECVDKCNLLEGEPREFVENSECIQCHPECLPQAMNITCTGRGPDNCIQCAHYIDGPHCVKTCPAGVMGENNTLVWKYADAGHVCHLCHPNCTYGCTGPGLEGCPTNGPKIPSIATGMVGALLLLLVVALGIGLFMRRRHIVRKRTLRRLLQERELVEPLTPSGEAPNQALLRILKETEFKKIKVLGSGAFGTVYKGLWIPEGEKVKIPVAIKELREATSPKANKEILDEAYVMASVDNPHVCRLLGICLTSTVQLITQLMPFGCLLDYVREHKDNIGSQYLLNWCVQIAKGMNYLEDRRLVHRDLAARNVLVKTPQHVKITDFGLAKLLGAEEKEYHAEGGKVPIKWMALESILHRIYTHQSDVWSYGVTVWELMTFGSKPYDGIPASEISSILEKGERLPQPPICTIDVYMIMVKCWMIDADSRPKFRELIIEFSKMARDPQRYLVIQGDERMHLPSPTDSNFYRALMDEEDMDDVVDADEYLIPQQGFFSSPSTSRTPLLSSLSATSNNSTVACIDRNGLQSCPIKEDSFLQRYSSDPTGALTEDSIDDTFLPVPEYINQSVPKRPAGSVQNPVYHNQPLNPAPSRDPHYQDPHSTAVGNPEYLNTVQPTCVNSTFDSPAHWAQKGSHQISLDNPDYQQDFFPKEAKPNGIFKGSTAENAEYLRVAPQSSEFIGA

`CCc1cc(Nc2ncc(Br)c(Nc3ccc(-n4cc(F)cn4)cc3P(C)(C)=O)n2)c(OC)cc1N1CCC(N2CCN(C)CC2)CC1` [Compound 44, (2-((5-Bromo-2-((5-ethyl-2-methoxy-4-(4-(4-methylpiperazin-1-yl)piperidin-1-yl)phenyl)amino)pyrimidin-4-yl)amino)-5-(4-fluoro-1H-pyrazol-1-yl)phenyl)dimethylphosphine oxide]: the IC50 (usually the concentration that gives 50% inhibition) at EGFRΔ19del/T790M/C797S amounted to 0.2 nM; in the assay on A431 (Homo sapiens, A-431, 72 h), 2380 nM; against EGFR WT it was 11.5 nM; on IGF1R, 124 nM. In addition, the GI50 amounted to 9.5 nM in assay [1] and 166 nM in assay [2].
For the compound `CCc1cc(Nc2ncc(Br)c(Nc3ccc(-c4cnc5c(ccn5C)c4)cc3P(C)(C)=O)n2)c(OC)cc1N1CCC(N2CCN(C)CC2)CC1` [Compound 55], the IC50 at EGFRΔ19del/T790M/C797S is 1.5 nM; in the assay with A431 (Homo sapiens, A-431, 72 h) it was 2960 nM; against EGFR WT it was 36.4 nM; at IGF1R, 497 nM. Besides, the figures for the GI50 in assay [1] and in assay [2] were 35 nM and 1070 nM, respectively.
`CCc1cc(Nc2ncc(Br)c(Nc3ccc(-c4cncc(OC)n4)cc3P(C)(C)=O)n2)c(OC)cc1N1CCC(N2CCN(C)CC2)CC1` [Compound 59, (2-((5-Bromo-2-((5-ethyl-2-methoxy-4-(4-(4-methylpiperazin-1-yl)piperidin-1-yl)phenyl)amino)pyrimidin-4-yl)amino)-5-(6-methoxypyrazin-2-yl)phenyl)dimethylphosphine oxide]: the 50% inhibitory concentration (IC50) on EGFRΔ19del/T790M/C797S was 1.3 nM; with A431, 2300 nM; against EGFR WT, 41 nM; on IGF1R it was 395 nM. Besides, the GI50 is 26.3 nM in assay [1] and 1290 nM in assay [2].
On to `CCc1cnc(-c2ccc(Nc3nc(Nc4cc(CC)c(N5CCC(N6CCN(C)CC6)CC5)cc4OC)ncc3Br)c(P(C)(C)=O)c2)nc1` [Compound 70], for which the IC50 was 0.9 nM against EGFRΔ19del/T790M/C797S; 6290 nM in the assay with A431 (Homo sapiens, A-431, 72 h); 38.6 nM at EGFR WT; 246 nM on IGF1R. Further, the GI50 in assay [1] was determined as 9 nM; in assay [2] it was 407 nM.
Consider `CCOc1cnc(-c2ccc(Nc3nc(Nc4cc(CC)c(N5CCC(N6CCN(C)CC6)CC5)cc4OC)ncc3Br)c(P(C)(C)=O)c2)nc1` [Compound 75], for which the 50% inhibitory concentration (IC50) on EGFRΔ19del/T790M/C797S was 0.5 nM; with A431 (Homo sapiens, A-431, 72 h) it was > 10000 nM; against EGFR WT, 16 nM; at IGF1R, 91 nM. Also, the values for the GI50 in assay [1] and in assay [2] were 16.8 nM and 1010 nM, respectively.
Take `CCc1cc(Nc2ncc(Br)c(Nc3ccc(-c4cnccn4)cc3P(C)(C)=O)n2)c(OC)cc1N1CCC(N2CCN(C)CC2)CC1` [Compound 78, (2-((5-Bromo-2-((5-ethyl-2-methoxy-4-(4-(4-methylpiperazin-1-yl)piperidin-1-yl)phenyl)amino)pyrimidin-4-yl)amino)-5-(pyrazin-2-yl)phenyl)dimethylphosphine oxide]: the half-maximal inhibitory concentration (IC50) came to 0.2 nM against EGFRΔ19del/T790M/C797S; 1090 nM with A431 (Homo sapiens, A-431, 72 h); 12.6 nM on EGFR WT; 94 nM at IGF1R. Moreover, the figures for the GI50 in assay [1] and in assay [2] were 7.2 nM and 134 nM, respectively.
As to `CCc1cc(Nc2ncc(Br)c(Nc3ccc(-c4cnn(C)n4)c(F)c3P(C)(C)=O)n2)c(OC)cc1N1CCC(N2CCN(C)CC2)CC1` [Compound K-007, (6-((5-Bromo-2-((5-ethyl-2-methoxy-4-(4-(4-methylpiperazin-1-yl)piperidin-1-yl)phenyl)amino)pyrimidin-4-yl)amino)-2-fluoro-3-(2-methyl-2H-1,2,3-triazol-4-yl)phenyl)dimethylphosphine oxide], the half-inhibitory concentration (IC50) on EGFRΔ19del/T790M/C797S is 0.1 nM; in the assay with A431 (Homo sapiens, A-431, 72 h), 1440 nM; against EGFR WT, 5.2 nM; at IGF1R it was 54.9 nM. In addition, the GI50 in assay [1] was determined as 3.2 nM; in assay [2], 130 nM.
`COc1cc(N2CCC(N3CCN(C)CC3)CC2)c(C)cc1Nc1ncc(Br)c(Nc2ccc(-c3cnn(C)n3)cc2P(C)(C)=O)n1` [Compound K-008, (2-((5-Bromo-2-((2-methoxy-5-methyl-4-(4-(4-methylpiperazin-1-yl)piperidin-1-yl)phenyl)amino)pyrimidin-4-yl)amino)-5-(2-methyl-2H-1,2,3-triazol-4-yl)phenyl)dimethylphosphine oxide]: the IC50 was 0.24 nM on EGFRΔ19del/T790M/C797S; 415 nM in the assay with A431 (Homo sapiens, A-431, 72 h); 15 nM at EGFR WT; 120 nM at IGF1R. In addition, the figures for the GI50 in assay [1] and in assay [2] were 4.8 nM and 169 nM, respectively.
For `C#Cc1cnn(-c2ccc(Nc3nc(Nc4cc(CC)c(N5CCC(N6CCN(C)CC6)CC5)cc4OC)ncc3Br)c(P(C)(C)=O)c2)c1` [Compound K-009, (2-((5-Bromo-2-((5-ethyl-2-methoxy-4-(4-(4-methylpiperazin-1-yl)piperidin-1-yl)phenyl)amino)pyrimidin-4-yl)amino)-5-(4-ethynyl-1H-pyrazol-1-yl)phenyl)dimethylphosphine oxide], the IC50 against EGFRΔ19del/T790M/C797S was 0.23 nM; in the assay with A431 (Homo sapiens, A-431, 72 h) it was 2460 nM; against EGFR WT it was 21 nM; at IGF1R, 165 nM. Further, the GI50 in assay [1] is 16.4 nM; in assay [2], 268 nM.
In the case of `C#Cc1cnc(-c2ccc(Nc3nc(Nc4cc(CC)c(N5CCC(N6CCN(C)CC6)CC5)cc4OC)ncc3Br)c(P(C)(C)=O)c2)cn1` [Compound K-010, (2-((5-Bromo-2-((5-ethyl-2-methoxy-4-(4-(4-methylpiperazin-1-yl)piperidin-1-yl)phenyl)amino)pyrimidin-4-yl)amino)-5-(5-ethynylpyrazin-2-yl)phenyl)dimethylphosphine oxide], the IC50 was found to be 0.4 nM at EGFRΔ19del/T790M/C797S; 693 nM in the assay on A431 (Homo sapiens, A-431, 72 h); 17 nM against EGFR WT; 46 nM on IGF1R. The GI50 in assay [1] came out at 7.2 nM; in assay [2] it was 52.8 nM.
Turning to `C#Cc1cnc(-c2ccc(Nc3nc(Nc4cc(C)c(N5CCC(N6CCN(C)CC6)CC5)cc4OC)ncc3Br)c(P(C)(C)=O)c2)cn1` [Compound K-011], the half-inhibitory concentration (IC50) against EGFRΔ19del/T790M/C797S was 0.45 nM; with A431 (Homo sapiens, A-431, 72 h), 4450 nM; against EGFR WT it was 28 nM; at IGF1R it was 104 nM. The GI50 amounted to 7.4 nM in assay [1] and 81.8 nM in assay [2].
In the case of `COc1cc(Nc2ncc(Br)c(Nc3ccc(-c4cnn(C)n4)c(F)c3P(C)(C)=O)n2)c(C)cc1N1CCC(N2CCN(C)CC2)CC1` [Compound K-012, (6-((5-Bromo-2-((5-methoxy-2-methyl-4-(4-(4-methylpiperazin-1-yl)piperidin-1-yl)phenyl)amino)pyrimidin-4-yl)amino)-2-fluoro-3-(2-methyl-2H-1,2,3-triazol-4-yl)phenyl)diniethylphosphine oxide], the concentration for half-maximal inhibition (IC50) on EGFRΔ19del/T790M/C797S came out at 0.19 nM; with A431 (Homo sapiens, A-431, 72 h) it was 5220 nM; at EGFR WT, 12 nM; at IGF1R it was 35 nM. For the same compound, the GI50 in assay [1] is 2.6 nM; in assay [2], 46 nM.
Regarding `C#Cc1cncc(-c2ccc(Nc3nc(Nc4cc(CC)c(N5CCC(N6CCN(C)CC6)CC5)cc4OC)ncc3Br)c(P(C)(C)=O)c2)n1` [Compound K-013, (2-((5-Bromo-2-((5-ethyl-2-methoxy-4-(4-(4-methylpiperazin-1-yl)piperidin-1-yl)phenyl)amino)pyrimidin-4-yl)amino)-5-(6-ethynylpyrazin-2-yl)phenyl)dimethylphosphine oxide], the IC50 against EGFRΔ19del/T790M/C797S was found to be 0.3 nM; in the assay with A431 (Homo sapiens, A-431, 72 h), 1420 nM; on EGFR WT, 22.1 nM; on IGF1R, 166 nM. The GI50 in assay [1] was determined as 15.2 nM; in assay [2] it was 70 nM.
`C#Cc1cnc(-c2ccc(Nc3nc(Nc4cc(OC)c(N5CCC(N6CCN(C)CC6)CC5)cc4C)ncc3Br)c(P(C)(C)=O)c2)cn1` [Compound K-014, (2-((5-Bromo-2-((5-methoxy-2-methyl-4-(4-(4-methylpiperazin-1-yl)piperidin-1-yl)phenyl)imino)pyrimidin-4-yl)amino)-5-(5-ethynylpyrazin-2-yl)phenyl)dimethylphosphine oxide]: the IC50 on EGFRΔ19del/T790M/C797S worked out at 0.5 nM; in the assay on A431 (Homo sapiens, A-431, 72 h), 816 nM; against EGFR WT, 32.5 nM; at IGF1R, 50.5 nM. Further, the GI50 in assay [1] was determined as 7.6 nM; in assay [2] it was 56 nM.
Turning to `COc1cc(Nc2ncc(Br)c(Nc3ccc(-c4cnn(C)n4)cc3P(C)(C)=O)n2)c(C)cc1N1CCOCC1` [Compound K-015, (2-((5-Bromo-2-((5-methoxy-2-methyl-4-morpholinophenyl)amino)pyrimidin-4-yl)amino)-5-(2-methyl-2H-1,2,3-triazol-4-yl)phenyl)dimethylphosphine oxide], the IC50 against EGFRΔ19del/T790M/C797S worked out at 0.2 nM; with A431 (Homo sapiens, A-431, 72 h), 953 nM; on EGFR WT, 27.4 nM; on IGF1R, 56.6 nM. The GI50 is 13.6 nM in assay [1] and 178 nM in assay [2].
